Experimental data: article PMC12683216, “Using High‐Throughput Screening to Identify Crosslinking Peptides That Control Cell‐Mediated Matrix Degradation” (Advanced Healthcare Materials, 2025)
Where a SMILES comes first, the peptide text is derived from it. [ ]: non-standard residue; d: D form. βAla = NCCC(=O)O

Assays:
Format in all cases: in vitro ADME, human
[1] = Soluble peptide degradation, Cells condition (LC-MS); settings: human
Method: (§1) Most in vitro protease activity assays incubate the peptides or proteins of interest with a single protease in a buffered solution. However, the kinetics of protease activity in tissues are complex and highly regulated, and both the activity^[ [37] ^] and substrate specificity^[ [38] ^] of proteases can be modulated through association with other proteins.^[ [39] ^] Most MMP‐substrate peptides are also cleaved by multiple proteases,^[ [5] ^] and within the context of biomaterials, the most important factor is typically how the combined activity of all proteases, rather than the activity of any specific protease, modifies the local microenvironment versus the activity due to any individual enzyme. We synthesized peptides identified in the TAILS proteomic screen that were present on proteins that are known to be secreted or found on the cell membrane, pooled them, and added them either to cell culture media on top of cells, the “Cells” condition, or conditioned media lacking cells, the “Media” condition (Figure 2A). The fraction of peptides remaining after 24 h in each condition was then quantified using LC‐MS. Soluble proteases should be present in both conditions, however, membrane‐type proteases should primarily be found in the samples containing cells and not the conditioned media samples. A key benefit of this approach is that it surveys the total functional proteolytic activity, including the effects of inhibitors and co‐factors, and quantifies the degradation rate of soluble peptides by the complete secretome of different cell types.
(§2) hUVECs (75000 per well) or hMSCs (36000 per well) were seeded into a 48 well plate, and 500 µL media was added to the wells. […] The peptide libraries were dissolved at a stock solution of 10 mM total peptide content. For libraries containing 38 peptides, 95 µL of the stock solution was added to each well; for libraries with 19 peptides, 47.5 µL was added to each well, and media was taken at 0 and 24 h. Add 4 µL of acetic acid to all collected media in the LC‐MS plates and store them in a −80 °C freezer to prevent further proteolytic degradation. From each sample, 10 µL of crude solution was introduced by the LC‐MS through a Thermo Scientific Vanquish LC System (Thermo Fisher Scientific), which outputted to a Thermo Scientific LTQ XL Linear Ion Trap Mass Spectrometer (Thermo Fisher Scientific). The sampled mixture was trapped on a column (ProntoSIL C18 AQ, 120 Å, 3 µm, 2.0 x 50 mm HPLC Column, PN 0502F184PS030, MAC‐MOD Analytical Inc.). The samples were loaded onto the column with a solvent containing acetonitrile/water, 5:95 (v/v) containing 1% acetic acid at a flow rate of 300 µL min^−1 and held for 1 min. The sample was then eluted from the column with a linear gradient of 5–40% Solvent B (1% acetic acid in acetonitrile) at the same flow rate for 5 min. This was followed by a 1 min ramp up to 100% Solvent B, where it was re‐equilibrated with Solvent A (1% acetic acid) to 5% solvent B over the course of 1 min and held there for 2 min. The column temperature was kept at a constant 29 °C, and the mass spectrometer was operated in positive ion mode. Using a Heated ESI, the Source Voltage was set to 4.1 kV, and the capillary temperature was 350 °C. For non‐library degradation studies, 2.5 µL of 10 mM peptide stock solution for each peptide was added.
(§3) In the MMP‐14 inhibitor study, the MMP‐14 inhibitor NSC 405 020 (Cayman Chemical Company) was dissolved in DMSO to make a 10 mM stock solution and stored in −20 °C freezer. 0.5 µL MMP‐14 inhibitor stock solution was added to each well to achieve a 10 µM final concentration.
(§4) For all degradation studies using soluble peptides, a non‐proteolytically degradable NH2‐βFβAβAβAβAβAβA‐amide (βFβA6) peptide, where βF is β‐phenylalanine and βA is β‐alanine, was added at a 50 µM concentration and used as an internal standard. Peptide degradation ratios were measured by LC‐MS and analyzed by Xcalibur. […]

hUVECs = assay: as above; settings: Figure 3B heatmap; split-and-pool libraries KLVADX1X2ASAE in media on hUVECs; 24 h; LC-MS, ratio to βFβA6; N = 2
Method: as §1, §2, §3, §4

[2] = Soluble peptide degradation, Media condition (cell-conditioned media, LC-MS); settings: human; for remaining at 24 h: hMSC-conditioned media without cells (Media condition), Figure 3B heatmap, split-and-pool libraries KLVADX1X2ASAE in hMSC-conditioned media without cells, LC-MS, ratio to βFβA6, N = 2, read-out: Fraction of peptide remaining after 24 hours: hMSC Media
Method: as §1, §2
(§5) To assess the activity of the conditioned media, the media were divided into two equal portions. One portion was used for a standard degradation study, while the other was cultured for an additional 24 h before the PanMMP and KLVADLMASAE were added. After 24 h of incubation, the media were collected for further analysis. To assess the impact of recombinant MMP‐14 on PanMMP and KLVADLMASAE, recombinant MMP‐14 (antibodies.com) was dissolved in the media at a concentration of 0.5 nM. The remaining steps followed the standard degradation study protocol. […]

[3] = as above; settings: human, hUVEC-conditioned media without cells (Media condition); Figure 3B heatmap; split-and-pool libraries KLVADX1X2ASAE in hUVEC-conditioned media without cells; 24 h; LC-MS, ratio to βFβA6; N = 2; read-out: Fraction of peptide remaining after 24 hours: hUVEC Media
Method: as §1, §2, §5

MMP-14 = assay: Soluble peptide degradation, Cells condition (LC-MS); settings: human, cells or culture medium
Method: as §1, §2, §3, §4

[4] = hMSCs in culture with fresh media (Cells condition), Figure 3B heatmap, split-and-pool libraries KLVADX1X2ASAE (19 or 38 peptides per library) in media on hMSCs, 24 h, LC-MS, ratio to βFβA6, N = 2, read-out: Fraction of peptide remaining after 24 hours: hMSC Cells
[5] = hUVECs in culture with fresh media (Cells condition), Figure 3B heatmap, split-and-pool libraries KLVADX1X2ASAE in media on hUVECs, 24 h, LC-MS, ratio to βFβA6, N = 2, read-out: Fraction of peptide remaining after 24 hours: hUVEC Cells

SMILES | remaining at 24 h [1, 4] [%] | Fraction of peptide remaining after 24 hours: hUVEC Cells (hUVECs) | remaining at 24 h [2] [%] | remaining at 24 h [3] [%] | remaining at 24 h ([1]; cells or culture medium) [%] | remaining at 24 h ([1]; cells or culture medium, Fraction of peptide remaining after 24 hours: hMSC Cells) [%] | remaining at 24 h, 50 µM (MMP-14) [%] | remaining at 24 h, 50 µM (MMP-14; Fraction of peptide remaining after 24 hours: hMSC +Inhibitor) [%] | remaining at 24 h, 50 µM ([2]; cells or culture medium) [%] | remaining at 24 h [1, 5] [%]
CC(=O)NCCC(=O)N[C@@H](CCCCN)C(=O)N[C@@H](CC(C)C)C(=O)N[C@H](C(=O)N[C@@H](C)C(=O)N[C@@H](CC(=O)O)C(=O)N[C@@H](CCC(=O)O)C(=O)N1CCC[C@H]1C(=O)N[C@@H](C)C(=O)N[C@@H](CO)C(=O)N[C@@H](C)C(=O)N[C@@H](CCC(=O)O)C(=O)NCCC(N)=O)C(C)C [Glu-Pro] (Ac-[βAla]KLVADEPASAE[βAla]-NH2) | 49 | 0.89 | 79 | 96 |  |  |  |  |  | 
CC(=O)NCCC(=O)N[C@@H](CCCCN)C(=O)N[C@@H](CC(C)C)C(=O)N[C@H](C(=O)N[C@@H](C)C(=O)N[C@@H](CC(=O)O)C(=O)N1CCC[C@H]1C(=O)N[C@@H](CC(C)C)C(=O)N[C@@H](C)C(=O)N[C@@H](CO)C(=O)N[C@@H](C)C(=O)N[C@@H](CCC(=O)O)C(=O)NCCC(N)=O)C(C)C [KLVAD-PL] (Ac-[βAla]KLVADPLASAE[βAla]-NH2) |  |  |  |  | 83 | 51 | 99 | 94 | 91 | 
CC(=O)NCCC(=O)N[C@@H](CCCCN)C(=O)N[C@@H](CC(C)C)C(=O)N[C@H](C(=O)N[C@@H](C)C(=O)N[C@@H](CC(=O)O)C(=O)N1CCC[C@H]1C(=O)N[C@@H](Cc1ccccc1)C(=O)N[C@@H](C)C(=O)N[C@@H](CO)C(=O)N[C@@H](C)C(=O)N[C@@H](CCC(=O)O)C(=O)NCCC(N)=O)C(C)C [Pro-Phe] (Ac-[βAla]KLVADPFASAE[βAla]-NH2) | 41 |  | 73 | 97 |  |  |  |  |  | 84
CC(=O)NCCC(=O)N[C@@H](CCCCN)C(=O)N[C@@H](CC(C)C)C(=O)N[C@H](C(=O)N[C@@H](C)C(=O)N[C@@H](CC(=O)O)C(=O)N1CCC[C@H]1C(=O)N[C@@H](Cc1c[nH]c2ccccc12)C(=O)N[C@@H](C)C(=O)N[C@@H](CO)C(=O)N[C@@H](C)C(=O)N[C@@H](CCC(=O)O)C(=O)NCCC(N)=O)C(C)C [Pro-Trp] (Ac-[βAla]KLVADPWASAE[βAla]-NH2) | 38 |  | 66 | 94 |  |  |  |  |  | 81
CC(=O)NCCC(=O)N[C@@H](CCCCN)C(=O)N[C@@H](CC(C)C)C(=O)N[C@H](C(=O)N[C@@H](C)C(=O)N[C@@H](CC(=O)O)C(=O)N1CCC[C@H]1C(=O)N[C@H](C(=O)N[C@@H](C)C(=O)N[C@@H](CO)C(=O)N[C@@H](C)C(=O)N[C@@H](CCC(=O)O)C(=O)NCCC(N)=O)C(C)C)C(C)C [Pro-Val] (Ac-[βAla]KLVADPVASAE[βAla]-NH2) | 51 |  | 84 | 100 |  |  |  |  |  | 92
CC(=O)NCCC(=O)N[C@@H](CCCCN)C(=O)N[C@@H](CC(C)C)C(=O)N[C@H](C(=O)N[C@@H](C)C(=O)N[C@@H](CC(=O)O)C(=O)N[C@@H](CO)C(=O)N[C@@H](CC(=O)O)C(=O)N[C@@H](C)C(=O)N[C@@H](CO)C(=O)N[C@@H](C)C(=O)N[C@@H](CCC(=O)O)C(=O)NCCC(N)=O)C(C)C [Ser-Asp] (Ac-[βAla]KLVADSDASAE[βAla]-NH2) | 48 |  | 71 | 94 |  |  |  |  |  | 84
CC(=O)NCCC(=O)N[C@@H](CCCCN)C(=O)N[C@@H](CC(C)C)C(=O)N[C@H](C(=O)N[C@@H](C)C(=O)N[C@@H](CC(=O)O)C(=O)N[C@@H](CO)C(=O)N[C@@H](Cc1c[nH]c2ccccc12)C(=O)N[C@@H](C)C(=O)N[C@@H](CO)C(=O)N[C@@H](C)C(=O)N[C@@H](CCC(=O)O)C(=O)NCCC(N)=O)C(C)C [Ser-Trp] (Ac-[βAla]KLVADSWASAE[βAla]-NH2) | 40 |  | 72 | 95 |  |  |  |  |  | 86
CC[C@H](C)[C@H](NC(=O)[C@H](Cc1ccc(O)cc1)NC(=O)[C@H](CC(=O)O)NC(=O)[C@H](C)NC(=O)[C@@H](NC(=O)[C@H](CC(C)C)NC(=O)[C@H](CCCCN)NC(=O)CCNC(C)=O)C(C)C)C(=O)N[C@@H](C)C(=O)N[C@@H](CO)C(=O)N[C@@H](C)C(=O)N[C@@H](CCC(=O)O)C(=O)NCCC(N)=O [Tyr-Ile] (Ac-[βAla]KLVADYIASAE[βAla]-NH2) | 43 |  | 76 | 92 |  |  |  |  |  | 86
CC(=O)NCCC(=O)N[C@@H](CCCCN)C(=O)N[C@@H](CC(C)C)C(=O)N[C@H](C(=O)N[C@@H](C)C(=O)N[C@@H](CC(=O)O)C(=O)N[C@@H](Cc1ccc(O)cc1)C(=O)N1CCC[C@H]1C(=O)N[C@@H](C)C(=O)N[C@@H](CO)C(=O)N[C@@H](C)C(=O)N[C@@H](CCC(=O)O)C(=O)NCCC(N)=O)C(C)C [Tyr-Pro] (Ac-[βAla]KLVADYPASAE[βAla]-NH2) | 35 |  | 65 | 96 |  |  |  |  |  | 89
